# “Also recorded” adds a separate entry of the source.
# Experiments:
# Format in all cases: physicochemical
# [1] = Water activity study of Compound 1 Form I at 25° C. for 1 week; conditions: for change of morphic form in solvents with high water content (water activity study): acetone/water, DMSO/water, pure water, 25° C.
# Procedure: Water activity experiments were conducted at 25° C. in 7 different water activities solvent mixtures to determine critical water activity of Compound 1 Form I. About 20 mg of Compound 1 Form I was added to 1.0 mL of acetone/water or DMSO/water mixtures and stirred at 400 rpm and 25° C. for 1 week.
# [2] = Approximate solubility of Compound 1 Form I at 25° C. and 50° C. (visual observation); conditions: thermodynamic from solid
# Procedure: Max. volume of each solvent added was 1 mL. Approximate solubility was determined by visual observation.
# [3] = Equilibration of Compound 1 Form I with solvents at 25° C. for 2 weeks (XRPD)
# Procedure: About 30 mg of Compound 1 Form I (free form) was equilibrated in 1 mL of solvent at 25° C. for 2 weeks with a stirring plate. The obtained suspension was filtered. The solid part (wet cake) was investigated b XRPD.
# [4] = solids after equilibration in EtOH, 25° C., 2 weeks
structure (smiles),measurement,setting,value
"O=C1CC[C@H](N2C(=O)c3cccc4c(Cc5ccc(CN6CCOCC6)cc5)ccc2c34)C(=O)N1 [Compound 1 Form I, (S)-3-(6-(4-(morpholinomethyl)benzyl)-2-oxobenzo[cd]indol-1(2H)-yl)piperidine-2,6-dione]",XRPD,"[1]; DMSO/Water (64:36, v:v), a.w. 0.5, 25° C.",Form I
same,XRPD,"[1]; Water, a.w. 1, 25° C.",Form I
same,change of morphic form in solvents with high water content (water activity study),[1],no significant changes to the morphic form
same,change of morphic form in solvents with high water content (water activity study),[1]; listed as Form I,only Form I was obtained
same,solubility,"[2]; DCM, 25 °C, organic solvent or mixture",8000 to 13000 µg/mL
same,solubility,"[2]; DCM, 50 °C, organic solvent or mixture",16000 to 25000 µg/mL
same,solubility,"[2]; DCM:MeOH (v:v = 1:1), 25 °C, organic solvent or mixture, DCM:MeOH (v:v = 1:1), 25° C.",17000 to 20000 µg/mL
same,solubility,"[2]; DCM:MeOH (v:v = 1:1), 50 °C, organic solvent or mixture, DCM:MeOH (v:v = 1:1), 50° C.",29000 to 33000 µg/mL
same,solubility,"[2]; DMSO, 25 °C, organic solvent or mixture",83000 to 125000 µg/mL
same,solubility,"[2]; DMSO, 25 °C, organic solvent or mixture, in DMSO, solubilized at about 25° C.",≥ 50000 µg/mL
same,solubility,"[2]; DMSO, 50 °C, organic solvent or mixture",167000 to 250000 µg/mL
same,solubility,"[2]; Ethanol:Water (8:2, v:v), 25 °C, organic solvent or mixture, Ethanol:Water (8:2, v:v), 25° C.",< 5000 µg/mL
same,solubility,"[2]; Ethanol:Water (8:2, v:v), 50 °C, organic solvent or mixture, Ethanol:Water (8:2, v:v), 50° C.",< 10000 µg/mL
same,solubility,"[2]; MTBE, 25 °C, organic solvent or mixture",< 5000 µg/mL
same,solubility,"[2]; MTBE, 50 °C, organic solvent or mixture",< 10000 µg/mL
same,solubility,"[2]; THF, 25 °C, organic solvent or mixture",8000 to 13000 µg/mL
same,solubility,"[2]; THF, 50 °C, organic solvent or mixture",16000 to 25000 µg/mL
same,solubility,"[2]; THF:Water (v:v = 95:5), 25 °C, organic solvent or mixture, THF:Water (v:v = 95:5), 25° C.",17000 to 20000 µg/mL
same,solubility,"[2]; THF:Water (v:v = 95:5), 50 °C, organic solvent or mixture, THF:Water (v:v = 95:5), 50° C.",40000 to 50000 µg/mL
same,solubility,"[2]; acetone, 25 °C, organic solvent or mixture",< 5000 µg/mL
same,solubility,"[2]; acetone, 50 °C, organic solvent or mixture",< 10000 µg/mL
same,solubility,"[2]; acetonitrile, 25 °C, organic solvent or mixture",< 5000 µg/mL
same,solubility,"[2]; acetonitrile, 50 °C, organic solvent or mixture",< 10000 µg/mL
same,solubility,"[2]; ethanol, 25 °C, organic solvent or mixture",< 5000 µg/mL
same,solubility,"[2]; ethanol, 50 °C, organic solvent or mixture",< 10000 µg/mL
same,solubility,"[2]; ethyl acetate, 25 °C, organic solvent or mixture",< 5000 µg/mL
same,solubility,"[2]; ethyl acetate, 50 °C, organic solvent or mixture",< 10000 µg/mL
same,solubility,"[2]; heptane, 25 °C, organic solvent or mixture",< 5000 µg/mL
same,solubility,"[2]; heptane, 50 °C, organic solvent or mixture",< 10000 µg/mL
same,solubility,"[2]; methanol, 25 °C, organic solvent or mixture, approximate, visual observation",< 5000 µg/mL
same,solubility,"[2]; methanol, 50 °C, organic solvent or mixture, approximate, visual observation",< 10000 µg/mL
same,solubility,"[2]; water, 25 °C",< 5000 µg/mL
same,solubility,"[2]; water, 50 °C",< 10000 µg/mL
same,stability of the form in water (equilibration experiments),[3]; alone in water / pure water,very stable; also recorded: stable
same,XRPD,"[3]; equilibration in ACN, 25° C., 2 weeks",Form I
same,XRPD,"[3]; equilibration in Acetone, 25° C., 2 weeks",Form I
same,XRPD,"[3]; equilibration in DCM, 25° C., 2 weeks",Form I
same,XRPD,"[3]; equilibration in DCM:MeOH (v:v = 1:1), 25° C., 2 weeks",Form I
same,XRPD,"[3]; equilibration in DCM:THF(v:v = 8:2), 25° C., 2 weeks",Form I
same,XRPD,"[3]; equilibration in EA, 25° C., 2 weeks",Form I
same,XRPD,"[3]; equilibration in EtOH, 25° C., 2 weeks",Form I
same,XRPD,"[3]; equilibration in MeOH, 25° C., 2 weeks",Form I
same,XRPD,"[3]; equilibration in THF, 25° C., 2 weeks, wet cake",Form I
same,XRPD,"[3]; equilibration in THF:Water (v:v = 95:5), 25° C., 2 weeks",Form I
same,Melting onset,[3]; [4],"Melting onset: 239.0° C.,"
same,enthalpy,[3]; [4],enthalpy: 107 J/g
same,residual DCM,[3]; [4],0.4% residual DCM
